Experiment [1] addresses Human immunodeficiency virus type 1 protease (Human immunodeficiency virus 1) (UniProt Q72874). In words: Inhibition of HIV protease at 0.5 nM.
The test system of the next experiment is MT4. In words: Compound was tested for antiviral activity against HIV-IIIB in MT-4 cells in presence of 50% human serum. The experiment is classed as functional, cell-based.

Broadly, the inhibition is the drop in the measured response relative to a control, in per cent. Read a high inhibition as strong suppression. By EC50 is commonly meant the midpoint of the concentration-response curve. For the molecule `Cc1cc(C)c(OCC(=O)N[C@H](Cc2ccccc2)[C@H](O)C[C@@H](Cc2ccccc2)NC(=O)[C@@H](C(C)C)N2CCCNC2=O)c(C)c1`, the inhibition in experiment [1] turned out to be 85%. For the same molecule, in the experiment with MT4, the EC50 turned out to be 390 nM.

On to `Cc1cccc(C)c1OCC(=O)N[C@@H](Cc1ccccc1)[C@@H](O)C[C@H](Cc1ccccc1)NC(=O)[C@H](C(C)C)N1CCCNC1=O` (single isomer, unassigned) [LOPINAVIR], for which the EC50 in the experiment on MT4 was 100 nM.

The molecule `CC(C)[C@H](C(=O)N[C@H](Cc1ccccc1)C[C@@H](O)[C@@H](Cc1ccccc1)NC(=O)COc1c(Cl)cccc1Cl)N1CCCNC1=O` returned an inhibition in experiment [1] of 87%. Also, the half-maximal effective concentration (EC50) with MT4 came out at 2800 nM.

On to `Cc1ncnc(C)c1OCC(=O)N[C@H](Cc1ccccc1)[C@H](O)C[C@@H](Cc1ccccc1)NC(=O)[C@@H](C(C)C)N1CCCNC1=O`, for which, in experiment [1], the inhibition was determined as 79%. In addition, the EC50 in the experiment with MT4 stood at 4200 nM.

Take `Cc1ccccc1OCC(=O)N[C@H](Cc1ccccc1)[C@H](O)C[C@@H](Cc1ccccc1)NC(=O)[C@@H](C(C)C)N1CCCNC1=O`: the inhibition in experiment [1] was found to be 84%. Moreover, in the experiment on MT4, the EC50 amounted to 430 nM.

The molecule `Cc1cc(N)cc(C)c1OCC(=O)N[C@H](Cc1ccccc1)[C@H](O)C[C@@H](Cc1ccccc1)NC(=O)[C@@H](C(C)C)N1CCCNC1=O` showed an inhibition in experiment [1] of 86%. In the experiment on MT4, the EC50 amounted to 160 nM.

In turn, `Cc1ccnc(C)c1OCC(=O)N[C@H](Cc1ccccc1)[C@H](O)C[C@@H](Cc1ccccc1)NC(=O)[C@@H](C(C)C)N1CCCNC1=O` displayed an inhibition in experiment [1] of 75%. The concentration for a half-maximal effect (EC50) in the experiment with MT4 was 770 nM.

For the molecule `Cc1cc(F)cc(C)c1OCC(=O)N[C@H](Cc1ccccc1)[C@H](O)C[C@@H](Cc1ccccc1)NC(=O)[C@@H](C(C)C)N1CCCNC1=O`, the inhibition in experiment [1] came out at 90%. Moreover, the EC50 in the experiment on MT4 stood at 490 nM.

Take `Cc1cccc(C)c1SCC(=O)N[C@H](Cc1ccccc1)[C@H](O)C[C@@H](Cc1ccccc1)NC(=O)[C@@H](C(C)C)N1CCCNC1=O`: the inhibition in experiment [1] was 55%. Besides, in the experiment on MT4, the EC50 was 4100 nM.

For the molecule `CC(C)[C@H](C(=O)N[C@H](Cc1ccccc1)C[C@@H](O)[C@@H](Cc1ccccc1)NC(=O)COc1ccccc1)N1CCCNC1=O`, in experiment [1], the inhibition was 67%. Further, the EC50 with MT4 is 1300 nM.

In experiment [1], `Cc1cc(C)cc(OCC(=O)N[C@H](Cc2ccccc2)[C@H](O)C[C@@H](Cc2ccccc2)NC(=O)[C@@H](C(C)C)N2CCCNC2=O)c1` had an inhibition of 37%. In addition, the EC50 in the experiment with MT4 turned out to be 38000 nM.

As for `COc1cccc(OC)c1OCC(=O)N[C@H](Cc1ccccc1)[C@H](O)C[C@@H](Cc1ccccc1)NC(=O)[C@@H](C(C)C)N1CCCNC1=O`, the inhibition in experiment [1] stood at 38%. For the same molecule, the 50% effective concentration (EC50) in the experiment on MT4 is 14000 nM.

In experiment [1], `Cc1cccc(C)c1CCC(=O)N[C@H](Cc1ccccc1)[C@H](O)C[C@@H](Cc1ccccc1)NC(=O)[C@@H](C(C)C)N1CCCNC1=O` registered an inhibition of 70%. In addition, the concentration for a half-maximal effect (EC50) with MT4 stood at 2600 nM.

Source of the values: ChEMBL document CHEMBL1135285, “Synthesis and structure-activity relationships of a novel series of HIV-1 protease inhibitors encompassing ABT-378 (Lopinavir)” (Bioorg Med Chem Lett, 2002).
